Legend:
[1] = target: T1, mouse GLP-1 receptor endogenously expressed in βTC6 cells (Mus musculus, UniProt O35659); assay: cAMP production functional assay (HTRF), agonist activity at GLP-1R; assay type: cell-based
T1 construct: host or cells: βTC6 cells
T1 sequence (O35659 22-463): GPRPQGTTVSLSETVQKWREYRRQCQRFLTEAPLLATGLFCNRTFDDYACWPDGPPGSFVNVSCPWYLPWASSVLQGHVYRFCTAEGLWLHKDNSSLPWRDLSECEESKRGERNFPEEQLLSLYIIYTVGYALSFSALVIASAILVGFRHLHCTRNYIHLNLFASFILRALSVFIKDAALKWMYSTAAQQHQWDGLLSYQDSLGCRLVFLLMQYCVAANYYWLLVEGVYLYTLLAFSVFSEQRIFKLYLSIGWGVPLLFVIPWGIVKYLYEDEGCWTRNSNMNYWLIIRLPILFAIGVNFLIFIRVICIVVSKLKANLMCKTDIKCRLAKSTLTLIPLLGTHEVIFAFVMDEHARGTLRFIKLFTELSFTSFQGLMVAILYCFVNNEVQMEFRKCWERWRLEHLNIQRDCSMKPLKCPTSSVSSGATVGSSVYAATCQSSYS
Method: The agonistic activity of these hybrids were obtained by functional assays using cells expressing the […] and by measuring the receptor-mediated cAMP produced (see supporting information).
In vitro pharmacology (EC50). […] Following incubation, the cells were lysed and the fluorescence acceptor (D2-labeled cAMP) and fluorescence donor (anti-cAMP antibody labeled with europium cryptate) were added.

[2] = target: NEP 24.11 (Homo sapiens, UniProt P08473); assay: in vitro; conditions: pH 8
Method: Enzymatic and mouse plasma degradation studies.
Enzymatic degradation (NEP 24.11). Stock solutions of the oligomers were prepared at a concentration of 400 μM in a solution of 50 mM HEPES buffer, 50 mM NaCl, 0.05% Tween-80, pH 8.0. Stock solution of NEP 24.11 was prepared at a concentration of 100 μg/mL in water. Stability of oligomers to NEP 24.11 was assessed by conducting protease reaction in a 96-well plates at 20° C. […] Each compound was also incubated in the absence of the enzyme (12 μL of HEPES buffer and 38 μL of oligomer). At the indicated time (1, 2, 4, 6 and 22 hours) an aliquot of 10 μL was removed from each experimental reaction and pipetting into 100 μL of 1% TFA solution to quench the reaction, (t=0 min was determined using the reaction without enzyme). A portion of the quenched reaction solution was analyzed by HPLC. The time course of peptide degradation was determined by integrating the area of each peak in a series of HPLC traces.

[3] = pH 7.4
Method: Mouse plasma stability. […] The oligomer was then diluted 1/50 with a solution of plasma/PBS pH 7.4 (1:1) to afford a final concentration of 5 μM and incubated at 37° C. (4 μL of the stock solution was diluted with 196 μL of plasma/PBS, pH 7.4, 1:1) Each compound was also incubated in the absence of plasma (196 μL of H2O/PBS, pH 7.4, 1:1)). At the indicated time (20 min and 60 min) an aliquot of 70 μL was removed from each experimental reaction and pipetting into 175 μL of acetonitrile at 0° C. to quench the reaction, (t=0 min was determined using the reaction without plasma). The samples were frozen before analysis. The frozen sample were defrost, stirred with a vortex 5 min and finally centrifuged 5 min at 16° C. The supernatant was analyzed by LC-MS. The time course of oligomer degradation was determined by integrating the area of the peak in the extracted ion chromatogram.

[4] = tested on: normal mice (C57BL/6J); assay: Blood glucose experiment in healthy mice; assay type: in vivo, mouse; set-up: key to In vivo activity (indicator): + = active; +++: + + + = more active
Method: In the first study, we evaluated the effect of the analogues on the blood glucose concentration of normal mice (FIG. 4). The fed mice were treated with the analogues and their blood glucose concentration was monitored before and after dosing for 6 h. […] Indeed, a decrease of blood glucose concentration is observed after 30 min and the effect is preserved for 4 h after dosing.
Blood glucose experiment in healthy mice. After the acclimation period (at least 5 days), mice (male C57BL/6J mice (Charles River laboratories) (8 weeks old, 20-25 g)) were randomized into 10 groups (n=3/group) according to their body weight. They were acutely treated via i.v. route at 10 AM (5 μg/mouse). Blood glucose was measured before dosing and at 30 min, 1, 2, 4, 6 h after dosing in fed conditions.

[5] = tested on: normal mice (C57BL/6J); assay: Intra peritoneal glucose tolerance test (IPGTT) in fasted normal mice; assay type: in vivo, mouse
Method: In a second study, an IPGTT was performed 30 min after i.v. injections of 1, 14 and the vehicle (FIGS. 5B1 and 5B2). […] A further IPGTT study was done with a glucose challenge after 2 h of the dosing to investigate the prolong activity of hybrids 14, 22, and 23 (FIGS. 5C1 and 5C2).
IPGTT experiments in mice. After the acclimation period (at least 5 days), mice (male C57BL/6J mice (Charles River laboratories) (6 weeks old, 20-24 g)) were randomized into 6 groups (n=6/group) according to their body weight. The mice were fasted for 6 h prior being acutely treated via i.v. route (5 μg/mouse i.v. (200 μg/kg, 50 nmol/kg)) formulated at 20 μg/mL in PBS 1×. The IPGTTs were performed (glucose 2 g/kg i.p.) 5 min, 30 min, 2 h or 4 h after dosing and blood glucose was measured 30, 60, 90 and 120 min after the glucose challenge.

Sequence of NEP 24.11 (P08473 whole entry): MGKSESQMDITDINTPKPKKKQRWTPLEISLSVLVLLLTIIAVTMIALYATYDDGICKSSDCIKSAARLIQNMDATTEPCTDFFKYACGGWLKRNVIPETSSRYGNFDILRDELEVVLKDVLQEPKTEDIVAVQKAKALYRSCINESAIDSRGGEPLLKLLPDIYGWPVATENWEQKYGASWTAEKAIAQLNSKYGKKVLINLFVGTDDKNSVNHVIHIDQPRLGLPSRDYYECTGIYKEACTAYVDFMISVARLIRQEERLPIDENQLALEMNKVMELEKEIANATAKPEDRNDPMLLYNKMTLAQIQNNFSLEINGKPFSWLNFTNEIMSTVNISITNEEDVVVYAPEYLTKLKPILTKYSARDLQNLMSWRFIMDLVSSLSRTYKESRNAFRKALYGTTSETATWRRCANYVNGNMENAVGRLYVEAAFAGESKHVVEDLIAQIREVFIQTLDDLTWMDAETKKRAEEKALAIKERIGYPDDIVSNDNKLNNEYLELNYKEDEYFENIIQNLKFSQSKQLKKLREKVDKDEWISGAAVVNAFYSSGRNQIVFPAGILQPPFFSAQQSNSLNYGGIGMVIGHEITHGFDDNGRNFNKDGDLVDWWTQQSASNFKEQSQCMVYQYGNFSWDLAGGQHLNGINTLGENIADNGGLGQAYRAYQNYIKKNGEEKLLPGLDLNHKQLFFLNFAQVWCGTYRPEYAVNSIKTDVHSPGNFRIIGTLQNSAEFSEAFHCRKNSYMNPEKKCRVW

Structure (SMILES): CC[C@H](C)[C@H](NC(=O)[C@H](Cc1ccccc1)NC(=O)[C@H](CCC(=O)O)NC(=O)[C@H](CCCCN)NC(=O)[C@H](C)NC(=O)[C@H](C)NC(=O)[C@H](CCC(N)=O)NC(=O)CNC(=O)[C@H](CCC(=O)O)NC(=O)[C@H](CC(C)C)NC(=O)[C@H](Cc1ccc(O)cc1)NC(=O)[C@H](CO)NC(=O)[C@H](CO)NC(=O)[C@@H](NC(=O)[C@H](CC(=O)O)NC(=O)[C@H](CO)NC(=O)[C@@H](NC(=O)[C@H](Cc1ccccc1)NC(=O)[C@@H](NC(=O)CNC(=O)[C@H](CCC(=O)O)NC(=O)CNC(=O)[C@@H](N)Cc1c[nH]cn1)[C@@H](C)O)[C@@H](C)O)C(C)C)C(=O)N[C@@H](C)C(=O)N[C@@H](Cc1c[nH]c2ccccc12)C(=O)N[C@@H](CC(C)C)C(=O)N[C@H](C(=O)N[C@@H](CCCCN)C(=O)NCC(=O)N[C@@H](CCCNC(=N)N)C(=O)NCC(N)=O)C(C)C [Compound 1, GLP-1-G^2, reference compound]
- Potency (%), percentage of potency (cAMP production) compared to GLP-1-G^2 ([1]; Table 2): 100%
- times less potent than GLP-1 ([1]; cAMP production): 2.5 times
- Potency (%), percentage of potency compare to GLP-1-G^2 ([1]; cAMP production, Table 1): 100%
- EC50 ([1]; read-out: EC50 (nM), GLP-1R potency): 0.24 nM
- half-life [2]: 3.6 h
- Mouse Plasma t1/2 [3]: 0.267 h
- In vivo activity (indicator) ([4]; blood glucose, mice, i.v.): +
- effect on blood glucose concentration ([4]; fed normal mice, 5 μg/mouse i.v., monitored 6 h): decreased of blood glucose concentration after 30 min
- activity in IPGTT 5 min after dosing, 60 min after the glucose challenge ([5]; 65 min after dosing, compared to vehicle): no more significant effect
- IPGTT 2 h after dosing ([5]; fasted mice, 200 μg/kg i.v.): IPGTT curve similar to the vehicle
- activity in IPGTT 30 min after dosing ([5]; fasted mice, 200 μg/kg i.v.): inactive
- activity in IPGTT 5 min after dosing ([5]; fasted mice, 200 μg/kg i.v., glucose 2 g/kg i.p.): active

From patent US11285219B2, “Peptide-oligourea hybrid compounds” (UREKA SARL, priority 2019, dated 2022)
